Measurements reported in patent US20240002459A1, “Granulin Compositions and Uses Related Thereto” (Emory University, priority 2016, published 2024).
Where a SMILES comes first, the peptide text is derived from it. Where no end group is shown, it is not given here. [ ]: non-standard residue; d: D form. The star is where a group is joined. Nle = CCCC[C@H](N)C(=O)O; Cbz = O=C(OCc1ccccc1)*

Assays:
[1] = test system: processing of PGRN into GRNs; assay: Pan-lysosomal inhibitor treatment, PGRN/GRN levels by ELISA and immunoblot; assay type: cell-based, human; conditions: HAP1 WT cells, 24 hrs, CQ 50 μM, BafA1 50 nM, ConA 50 nM; for secreted PGRN: conditioned media ELISA; for GRN levels / intracellular PGRN: immunoblot
Protocol: HAP1 WT cells were treated for 24 hrs with the pan-lysosome inhibitors chloroquine (CQ; 50 μM), bafilomycin A1 (BafA1; 50 nM), or concanamycin A (ConA; 50 nM) and conditioned media was analyzed for secreted PGRN by ELISA.
(§1) Asterisks (*) denote endogenous, intermediate PGRN cleavage products.
Because rapid processing of endocytosed PGRN into GRNs was observed, inhibiting lysosome function could impair GRN production. To determine the effect of pharmacologic lysosome inhibition on GRN levels, HAP1 WT cells were treated with the pan-lysosomal inhibitors chloroquine, bafilomycin A1, or concanamycin A1 for 24 hours and monitored PGRN/GRN levels by immunoblot. These compounds act as lysosome alkalizing agents or inhibitors of the vacuolar-type H+-ATPase (V-ATPase), which is needed for proper lysosome acidification and function. Further, these compounds increase intracellular and secreted PGRN.

[2] = test system: PGRN KO mouse embryonic fibroblasts (MEFs); assay: Uptake of recombinant PGRN and generation of GRNs in PGRN KO MEFs; assay type: cell-based; conditions: 5 or 10 μg/mL, immunoblot
Protocol: PGRN KO MEF cells were treated with recombinant human PGRN (5 or 10 μg/mL) or recombinant mouse PGRN (5 μg/mL) in the media for 24 hrs and lysates were analyzed for PGRN (R&D AF2420) and GRN (Sigma) by immunoblot.
Because this study focused on screening and validating human specific PGRN antibodies, antibodies to detect endogenous mouse GRNs have not been identifies. Nevertheless, to determine if mouse cells are able to process human PGRN into mature GRNs, primary PGRN KO mouse embryonic fibroblasts (MEFs) were treated with recombinant human or mouse PGRN for […]. PGRN/GRN levels were measured in the lysates by immunoblot. […] Next, experiments were performed to determine if human PGRN would be processed into GRNs in mouse brain. Somatic brain transgenesis (SBT) were performed by injecting rAAV2/1 encoding eGFP or human N-TAP PGRN into the cerebral ventricles of newborn (PO) PGRN KO mice. The SBT paradigm leads to transgene expression that is almost exclusively neuronal as assessed by predominant co-localization between eGFP or PGRN (V5) and the neuronal marker NeuN at 3 months of age.

[3] = molecular target: cathepsin L (Homo sapiens, UniProt P07711); assay: In vitro cleavage of PGRN by recombinant cathepsin L; assay type: biochemical
cathepsin L, sequence (P07711 114-333, species assumed): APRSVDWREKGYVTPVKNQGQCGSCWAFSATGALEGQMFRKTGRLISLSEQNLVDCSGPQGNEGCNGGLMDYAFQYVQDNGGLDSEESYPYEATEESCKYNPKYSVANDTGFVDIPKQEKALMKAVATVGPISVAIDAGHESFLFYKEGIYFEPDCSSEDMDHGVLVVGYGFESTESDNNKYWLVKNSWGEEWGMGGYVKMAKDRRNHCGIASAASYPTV

[4] = test system: Grn KO MEF cells; assay: Rescue of cathepsin-D (CTSD) phenotype in Grn KO MEFs by exogenous protein; assay type: cell-based, mouse; conditions: PGRN 10 μg/mL or GRN-2 proteins 25 μg/mL, 120 hrs, immunoblot
[5] = test system: processing of PGRN into GRNs; assay: Protease inhibitor panel, PGRN/GRN levels by immunoblot; assay type: cell-based, human; conditions: HAP1 WT cells, 24 hrs
Protocol: as §1
Processing of PGRN into GRNs likely involves one or more lysosomal proteases. To narrow down which class of proteases may be responsible for intracellular PGRN metabolism, HAP1 WT cells were treated with a panel of protease inhibitors and measured PGRN/GRN levels by immunoblot. […] One potential candidate lysosomal cysteine protease is cathepsin L, which was reported to cleave mouse PGRN in vitro.

[6] = at 25° C.; cited from earlier work
[7] = molecular target: C-TAP PGRN (UniProt P28799)
[8] = test system: processing of PGRN into GRNs; assay: Cathepsin L inhibitor II treatment, PGRN/GRN levels by immunoblot; assay type: cell-based, human; conditions: HAP1 WT cells, increasing concentrations, 40 hrs
Source text: as §1

[9] = test system: HAP1 PGRN KO cells; assay: Uptake and processing of C-TAP or N-TAP PGRN into GRNs (immunoblot); assay type: cell-based, human; conditions: 5 μg/mL, 24 hrs, compared to N-TAP PGRN
Protocol: HAP1 PGRN KO cells were treated with C-TAP PGRN or N-TAP PGRN (5 μg/mL) for 24 hrs and […] lysates were analyzed for PGRN and GRN by immunoblot.
PGRN levels have been linked to expression of several genes including SORT1, encoding the membrane receptor sortilin, and TMEM106B, encoding the transmembrane protein 106B (TMEM106B). Thus, altered expression of these proteins could affect the production of intracellular GRNs as well. To address this, experiments were performed to determine if expression of sortilin, which facilitates endocytosis and trafficking of PGRN to the lysosome, influences GRN levels. PGRN KO cells were treated with PGRN tagged at either the C-terminus (C-TAP), which disrupts sortilin binding or the N-terminus (N-TAP), which preserves sortilin binding, and measured intracellular PGRN and GRN by immunoblot. […] Next, HAP1 SORT1 KO cells were generated using CRISPR/Cas9 technology. […] Thus, disruption of the SORT1/PGRN axis alters intracellular PGRN trafficking and leads to decreased GRN production.

With `C/C=C/[C@H]1O[C@@](O)([C@@H](C)[C@H](O)[C@H](C)[C@H]2OC(=O)/C(OC)=C/C(C)=C/[C@@H](C)[C@@H](O)[C@@H](CC)[C@@H](O)[C@H](C)C/C(C)=C/C=C/[C@@H]2OC)C[C@@H](O[C@H]2C[C@@H](O)[C@H](OC(N)=O)[C@@H](C)O2)[C@@H]1C` [concanamycin A1, concanamycin A] the “secreted PGRN” value [1] was “significantly increased”, the GRN levels [1] was “significantly decreased” and the “intracellular PGRN” value [1] was “significantly increased”.

With “recombinant human PGRN: recombinant full-length human progranulin protein (C-TAP PGRN in the cathepsin L cleavage)” the “endocytosis of PGRN and generation of mature human GRNs” value (from here on “endocytosis … of mature human GRNs”) [2] was “efficiently endocytosed”, the “GRNs generated by in vitro cleavage with cathepsin L” value ([3]; 2 hrs, immunoblot) was “generated multiple, mature GRNs including GRN-2, -3, and -4” and the “full-length PGRN on incubation with cathepsin L” value ([3]; with corresponding increase of GRN protein) was “time-dependent decrease”. The “CTSD phenotype (total mature CTSD levels)” value [4] was “can be rescued”.

For `CC(=O)N[C@@H](CC(C)C)C(=O)N[C@@H](CC(C)C)C(=O)N[C@H](C=O)CCCNC(=N)N` [leupeptin], the “GRN levels compared to vehicle treated control” value [5] was “reduced GRN levels”.

In the case of `CCCC[C@@H](C=O)NC(=O)[C@H](CC(C)C)NC(=O)[C@H](CC(C)C)NC(C)=O` [ALLN] (Ac-Leu-Leu-[Nle]-aldehyde), the “GRN levels compared to vehicle treated control” value [5] is reported as “reduced GRN levels”.

In the case of `CCCCCCCC` [octane], the “percent solubility in water by weight” value [6] is given as 0.63×10^−4 % w/w.

In the case of `CC(NC(=O)[C@H](Cc1ccccc1)NC(=O)OCc1ccccc1)C(=O)CF` (stereo partly drawn) [Z-FA-fmk], the “GRN levels compared to vehicle treated control” value [5] is reported as “reduced GRN levels”.

In the case of recombinant cathepsin L, the “in vitro cleavage of PGRN (immunoblot)” value [7] is reported as “Incubation of cathepsin L and recombinant human PGRN lead to the time-dependent decrease of full-length PGRN and a corresponding increase of GRN protein”.

With `CCN(CC)CCCC(C)Nc1ccnc2cc(Cl)ccc12` (stereo not drawn) [chloroquine] the “secreted PGRN” value [1] was “significantly increased”, the GRN levels [1] was “significantly decreased” and the “intracellular PGRN” value [1] was “significantly increased”.

With “N-TAP PGRN: full-length human PGRN with twin Strep tag and V5 epitope after the signal sequence; preserves sortilin binding” the “endocytosis … of mature human GRNs” value [2] was “equally well”.

In the case of “GRN-2: recombinant human granulin-2 protein, SEQ ID NO: 21, with twin Strep-tag (AIQCPDSQFECPDFSTCCVMVDGSWGCCPMPQASCCEDRVHCCPHGAFCDLVHTRCIT; cysteine pairing not given here; also: twin Strep-tag (position not given here))”, the “CTSD phenotype (total mature CTSD levels)” value [4] is reported as “rescues the CTSD phenotype”.

For `CO/C1=C\C(C)=C\[C@@H](C)[C@@H](O)[C@@H](C)C/C(C)=C/C=C/[C@H](OC)[C@@H]([C@@H](C)[C@@H](O)[C@H](C)[C@@]2(O)C[C@@H](O)[C@H](C)[C@@H](C(C)C)O2)OC1=O` [bafilomycin A1], the “secreted PGRN” value [1] was “significantly increased”, the GRN levels [1] was “significantly decreased” and the “intracellular PGRN” value [1] was “significantly increased”.

With `O=C[C@H](Cc1ccc(O)cc1)NC(=O)[C@H](Cc1ccccc1)NC(=O)OCc1ccccc1` [cathepsin L inhibitor II, Z-FY-CHO] (Cbz-Phe-Tyr-aldehyde) the “endogenous PGRN” value [8] was “modestly increased” and the “production of GRN” value [8] was “significantly decreasing”.

B1: C-TAP PGRN: full-length human PGRN with C-terminal twin-Strep tag followed by FLAG epitope; disrupts sortilin binding (protein)
chain: TRCPDGQFCPVACCLDPGGASYSCCRPLLDKWPTTLSRHLGGPCQVDAHCSAGHSCIFTVSGTSSCCPFPEAVACGDGHHCCPRGFHCSADGRSCFQRSGNNSVGAIQCPDSQFECPDFSTCCVMVDGSWGCCPMPQASCCEDRVHCCPHGAFCDLVHTRCITPTGTHPLAKKLPAQRTNRAVALSSSVMCPDARSRCPDGSTCCELPSGKYGCCPMPNATCCSDHLHCCPQDTVCDLIQSKCLSKENATTDLLTKLPAHTVGDVKCDMEVSCPDGYTCCRLQSGAWGCCPFTQAVCCEDHIHCCPAGFTCDTQKGTCEQGPHQVPWMEKAPAHLSLPDPQALKRDVPCDNVSSCPSSDTCCQLTSGEWGCCPIPEAVCCSDHQHCCPQGYTCVAEGQCQRGSEIVAGLEKMPARRASLSHPRDIGCDQHTSCPVGQTCCPSLGGSWACCQLPHAVCCEDRQHCCPAGYTCNVKARSCEKEVVSAQPATFLARSPHVGVKDVECGEGHFCHDNQTCCRDNRQGWACCPYRQGVCCADRRHCCPAGFRCAARGTKCLRREAPRWDAPLRDPALRQLL
modifications: left off: small tags and cut ends
For B1, the “endocytosis … of mature human GRNs” value [2] was “equally well” and the “endocytosis and processing into GRNs” value [9] was “not efficiently endocytosed and processed into GRNs”.
